Among the test systems are MDA-MB-435; NCI-H23 lung; SK-MEL-5 melanoma; A498 renal; MALME-3M melanoma; K-562 leukemia; HS 578T breast; SNB-75 CNS; A549 NSCLC; HOP-92 NSCLC.
Holding throughout (assay): DTP human tumour cell line panel, 48 h

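How tested: cells in 96-well plates exposed to compound for 48 hours at five concentrations. GI50 is the concentration that inhibits growth by half. TGI: total growth inhibition.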

The GI50 is the concentration at which growth is held to half of that of the control. As a reminder, the TGI is the concentration giving total growth inhibition.

In the case of `Cc1cc(NC(=O)NCc2ccc(N3C(N)=NC(N)=NC3(C)C)cc2)ccc1S(=O)(=O)F`, the GI50 in the experiment with MDA-MB-435 was 0.456 µM; with NCI-H23 lung, 4.29 µM; in the experiment with SK-MEL-5 melanoma, 1.11 µM; in the experiment with A498 renal it was above 46.4 µM; in the experiment on MALME-3M melanoma, 29 µM; in the experiment on K-562 leukemia it was 0.484 µM. The GI50 in the experiment on HS 578T breast is above 48.7 µM; in the experiment with SNB-75 CNS it was above 32.3 µM; with A549 NSCLC, 0.528 µM; with HOP-92 NSCLC, 23.2 µM. In addition, the concentration for total growth inhibition (TGI) was above 100 µM with MDA-MB-435; above 100 µM with NCI-H23 lung; 58.7 µM in the experiment on SK-MEL-5 melanoma; above 100 µM in the experiment with A498 renal; 98.5 µM in the experiment with MALME-3M melanoma; above 100 µM in the experiment with K-562 leukemia. The total growth inhibition concentration (TGI) was above 100 µM in the experiment with HS 578T breast, above 100 µM in the experiment with SNB-75 CNS, above 32.1 µM with A549 NSCLC and above 100 µM in the experiment with HOP-92 NSCLC.
For `CNC(=O)CCN1CCN(CC/C=C2\c3ccccc3Sc3ccc(Cl)cc32)CC1`, the GI50 is 1.96 µM in the experiment with MDA-MB-435; 14.4 µM in the experiment with NCI-H23 lung; 2.41 µM with SK-MEL-5 melanoma; 6.89 µM with A498 renal; 2.59 µM in the experiment with MALME-3M melanoma; 4.2 µM with K-562 leukemia. Besides, the GI50 in the experiment with HS 578T breast is 3.67 µM; in the experiment with SNB-75 CNS, 7.43 µM; with A549 NSCLC it was 10.7 µM; with HOP-92 NSCLC, 5.75 µM. Moreover, the TGI in the experiment with MDA-MB-435 was 4.91 µM; in the experiment with NCI-H23 lung, 32.5 µM; in the experiment with SK-MEL-5 melanoma, 6.18 µM; with A498 renal, 19.9 µM; in the experiment with MALME-3M melanoma, 6.16 µM; with K-562 leukemia, above 37.1 µM. For the same compound, the total growth inhibition concentration (TGI) in the experiment with HS 578T breast turned out to be 20.5 µM; with SNB-75 CNS, 23.1 µM; with A549 NSCLC, 28.5 µM; in the experiment with HOP-92 NSCLC, 27 µM.

(Values after PubChem BioAssay (NCI).)
